Assay results reported in ChEMBL document CHEMBL1134424, “Synthesis and evaluation of caffeic acid amides as antioxidants” (Bioorg Med Chem Lett, 2001).

Test: Evaluated for the antioxidant property by measuring the inhibition of microsomal lipid peroxidation
Assay type: functional

Compound | IC50 [µM]
CNC(=O)/C=C/c1ccc(O)c(O)c1 | 6
O=C(O)/C=C/c1ccc(O)cc1 [COUMARIC ACID] | 100
CC(C)=CCNC(=O)/C=C/c1ccc(O)cc1 | 29.1
O=C(/C=C/c1ccc(O)c(O)c1)Nc1ccc(O)cc1 | 0.63
O=C(/C=C/c1ccc(O)c(O)c1)NCCc1ccc(O)c(O)c1 | 0.59
C=CCNC(=O)/C=C/c1ccc(O)c(O)c1 | 2.2
O=C(/C=C/c1ccc(O)c(O)c1)N1CCOCC1 | 6.1
O=C(/C=C/c1ccc(O)c(O)c1)NCCc1ccccc1 [CAFFEIC ACID PHENETHYL AMIDE] | 0.85
CCN(CC)C(=O)/C=C/c1ccc(O)c(O)c1 | 4.1
O=c1c(O)c(-c2ccc(O)c(O)c2)oc2cc(O)cc(O)c12 [QUERCETIN] | 0.95
O=C(/C=C/c1ccc(O)c(O)c1)Nc1cccc(O)c1 | 0.37
O=C(O)/C=C/c1ccc(O)c(O)c1 [CAFFEIC ACID] | 3.3
Cc1c(C)c2c(c(C)c1O)CCC(C)(C(=O)O)O2 (stereo not given) [TROLOX] | 2.8
O=C(/C=C/c1ccc(O)c(O)c1)N1CCCCC1 | 3.6
O=C(/C=C/c1ccc(O)c(O)c1)N1CCCC1 | 2.4
O=C(/C=C/c1ccc(O)c(O)c1)Nc1ccccc1O | 0.29
O=C(/C=C/c1ccc(O)c(O)c1)NCc1ccccc1 | 1.02
CC(C)CCNC(=O)/C=C/c1ccc(O)c(O)c1 | 1.4
CC(C)=CCNC(=O)/C=C/c1ccc(O)c(O)c1 | 3.4
CC(C)NC(=O)/C=C/c1ccc(O)c(O)c1 | 3.9
NC(=O)/C=C/c1ccc(O)c(O)c1 | 2.2
CC(C)CNC(=O)/C=C/c1ccc(O)c(O)c1 | 2.2
CCNC(=O)/C=C/c1ccc(O)c(O)c1 | 2.7
COC(=O)C(Cc1ccc(O)cc1)NC(=O)/C=C/c1ccc(O)c(O)c1 (stereo not given) | 3.2
O=C(/C=C/c1ccc(O)c(O)c1)Nc1ccccc1 | 0.38
